# ChEMBL document CHEMBL4402583, “Rational Substitution of ε-Lysine for α-Lysine Enhances the Cell and Membrane Selectivity of Pore-Forming Melittin” (J Med Chem, 2020)
# Calls of active or inactive are those of the source. The rule behind the calls is not given here.
# Experiments:
# [1] = Hemolytic activity against human erythrocytes assessed as hemoglobin release incubated for 1 hr; type: ADME, cell-based, Erythrocyte; settings: read-out: HD50
# Oryctolagus cuniculus [2] = assay: Induction of reepithelialization in injured New Zealand white rabbit cornea assessed as wound healing administered topically for qid measured at day 5 post-injury by fluorescein sodium staining based microscopic imaging analysis (reference value: 39.8 +/- 6.2 %); type: organism-based; settings: in vivo, topical_or_ocular
# Enterobacteriaceae = assay: Antibacterial activity against Carbapenem-Resistant Enterobacteriaceae assessed as reduction in bacterial growth incubated for 24 hrs by broth microdilution method; type: functional
# NHDF = assay: Cytotoxicity against HDF cells assessed as truncation and reduction in cytoskeleton at 500 ug/ml incubated for 24 hrs by Alexa Fluor […] phalloidin-FITC/Hoescht dye staining based fluorescence microscopic analysis; type: cell-based; settings: human
# Oryctolagus cuniculus [3] = assay: Induction of reepithelialization in injured New Zealand white rabbit cornea assessed as wound healing administered topically for qid measured at day 2 post-injury by fluorescein sodium staining based microscopic imaging analysis (reference value: 76.6 +/- 4.5 %); type: organism-based; settings: in vivo, topical_or_ocular
# HaCaT = assay: Cytotoxicity against human HaCaT cells assessed as truncation and reduction in cytoskeleton at 500 ug/ml incubated for 24 hrs by Alexa Fluor […] phalloidin-FITC/Hoescht dye staining based fluorescence microscopic analysis; type: cell-based
# Enterococcus faecalis [4] = assay: Antibacterial activity against vancomycin-resistant Enterococcus faecalis ATCC 29212 assessed as log10 reduction in bacterial viability at 2 to 4 times MIC incubated for 30 mins in MHB medium followed by reincubation on MH agar plate for 24 to 48 hrs by time kill kinetics analysis; type: functional
# Oryctolagus cuniculus [5] = assay: Induction of reepithelialization in injured New Zealand white rabbit cornea assessed as wound healing administered topically for qid measured at day 4 post-injury by fluorescein sodium staining based microscopic imaging analysis (reference value: 48.4 +/- 7.6 %); type: organism-based; settings: in vivo, topical_or_ocular
# Candida albicans = assay: Antifungal activity against Candida albicans assessed as reduction in fungal growth incubated for 24 hrs by broth microdilution method; type: functional
# Acinetobacter baumannii [6] = assay: Antibacterial activity against Acinetobacter baumannii 1001 assessed as reduction in bacterial viability at 2 or 4 times MIC incubated up to 24 hrs in MHB medium followed by reincubation on MH agar plate for 24 to 48 hrs by time kill kinetics assay; type: functional, organism-based
# T-cell [7] = assay: Immunogenicity in human PBL T cells assessed as increase in IFN-gamma production at 62.5 or 125 ug/ml incubated for 24 hrs by ELISA; type: ADME, cell-based
# Enterococcus = assay: Antibacterial activity against vancomycin-resistant Enterococcus assessed as reduction in bacterial growth incubated for 24 hrs by broth microdilution method; type: functional
# Staphylococcus aureus [8] = assay: Antibacterial activity against methicillin-sensitive Staphylococcus aureus assessed as reduction in bacterial growth incubated for 24 hrs by broth microdilution method; type: functional
# Enterococcus faecalis [9] = assay: Antibacterial activity against vancomycin-resistant Enterococcus faecalis 1002 assessed as log10 reduction in bacterial viability at 2 to 4 times MIC incubated for 30 mins in MHB medium followed by reincubation on MH agar plate for 24 to 48 hrs by time kill kinetics analysis; type: functional
# Pseudomonas aeruginosa = assay: Antibacterial activity against Pseudomonas aeruginosa assessed as reduction in bacterial growth incubated for 24 hrs by broth microdilution method; type: functional
# Klebsiella pneumoniae = assay: Antibacterial activity against Klebsiella pneumoniae 1008 assessed as reduction in bacterial viability at 2 or 4 times MIC incubated up to 24 hrs in MHB medium followed by reincubation on MH agar plate for 24 to 48 hrs by time kill kinetics assay; type: functional, organism-based
# T-cell [10] = assay: Immunogenicity in human PBL T cells assessed as increase in IL-2 production at 62.5 or 125 ug/ml incubated for 24 hrs by ELISA; type: ADME, cell-based
# Escherichia coli [11] = assay: Antibacterial activity against Escherichia coli 1004 assessed as reduction in bacterial viability at 2 or 4 times MIC incubated up to 24 hrs in MHB medium followed by reincubation on MH agar plate for 24 to 48 hrs by time kill kinetics assay; type: functional, organism-based
# Oryctolagus cuniculus [12] = assay: Induction of reepithelialization in injured New Zealand white rabbit cornea assessed as wound healing administered topically for qid measured at day 3 post-injury by fluorescein sodium staining based microscopic imaging analysis (reference value: 63.9 +/- 5.3 %); type: organism-based; settings: in vivo, topical_or_ocular
# T-cell [13] = assay: Immunogenicity in human PBL T cells assessed as increase in IL-5 production at 62.5 or 125 ug/ml incubated for 24 hrs by ELISA; type: ADME, cell-based
# Enterococcus faecalis [14] = assay: Induction of pore formation in intact vancomycin-resistant Enterococcus faecalis 1002 cell membrane assessed as SG uptake at 2 times MIC by SG dye based fluorescence based assay; type: organism-based
# Enterococcus faecalis [15] = assay: Induction of pore formation in intact vancomycin-resistant Enterococcus faecalis ATCC 29212 cell membrane assessed as SG uptake at 2 times MIC by SG dye based fluorescence based assay; type: organism-based
# Enterococcus faecalis [16] = assay: Antibacterial activity against vancomycin-resistant Enterococcus faecalis 1010 assessed as log10 reduction in bacterial viability at 2 to 4 times MIC incubated for 30 mins in MHB medium followed by reincubation on MH agar plate for 24 to 48 hrs by time kill kinetics analysis; type: functional
# Acinetobacter baumannii [17] = assay: Induction of pore formation in intact Acinetobacter baumannii 1001 cell membrane assessed as SG uptake at 2 times MIC by SG dye based fluorescence based assay; type: organism-based
# Acinetobacter baumannii [18] = assay: Antibacterial activity against Acinetobacter baumannii ATCC 19606 assessed as reduction in bacterial growth at sublethal concentrations measured after 20 serial passages by broth microdilution method; type: functional, organism-based; settings: ATCC 19606 = CIP 70.34 = JCM 6841
# [19] = Stability of the compound in rabbit tear fluids assessed as parent compound remaining measured after 4 hrs by UPLC-MS analysis; type: ADME, Oryctolagus cuniculus; settings: tear fluid, read-out: Stability
# Oryctolagus cuniculus [20] = assay: Induction of reepithelialization in injured New Zealand white rabbit cornea assessed as wound healing at 0.3% administered topically for qid measured at day 1 post-injury by fluorescein sodium staining based microscopic imaging analysis (reference value: 89.9 +/- 2.9 %); type: organism-based; settings: in vivo, topical_or_ocular
# Staphylococcus aureus [21] = assay: Antibacterial activity against methicillin-resistance Staphylococcus aureus assessed as reduction in bacterial growth incubated for 24 hrs by broth microdilution method; type: functional
# Oryctolagus cuniculus [22] = assay: Induction of reepithelialization in injured New Zealand white rabbit cornea assessed as wound healing administered topically for qid measured at day 8 post-injury by fluorescein sodium staining based microscopic imaging analysis (reference value: 3.8 %); type: organism-based; settings: in vivo, topical_or_ocular
# Escherichia coli [23] = assay: Induction of pore formation in intact Escherichia coli 1004 cell membrane assessed as SG uptake at 2 times MIC by SG dye based fluorescence based assay; type: organism-based
# [24] = Stability of the compound in rabbit tear fluid measured after 2 hrs by UPLC-MS analysis; type: ADME, Oryctolagus cuniculus
# [25] = Cytotoxicity against HDF cells assessed as cell viability at 500 ug/ml incubated for 24 hrs by MTS assay relative to control; type: cell-based; settings: human, HDF cells (NHDF, human dermal fibroblasts); read-out: Activity
# Acinetobacter baumannii [26] = assay: Antibacterial activity against multidrug-resistant Acinetobacter baumannii assessed as reduction in bacterial growth incubated for 24 hrs by broth microdilution method; type: functional
# Enterococcus faecalis [27] = assay: Resistance index, ratio of MIC for vancomycin-resistant Enterococcus faecalis 1010 measured after 18 serial passages by broth microdilution method to MIC for vancomycin-resistant Enterococcus faecalis 1010 incubated for 24 hrs by broth microdilution method; type: functional
# T-cell [28] = assay: Immunogenicity in human PBL T cells assessed as increase in IL-4 production at 62.5 or 125 ug/ml incubated for 24 hrs by ELISA; type: ADME, cell-based
# Oryctolagus cuniculus [29] = assay: Induction of reepithelialization in injured New Zealand white rabbit cornea assessed as wound healing administered topically for qid measured at day 7 post-injury by fluorescein sodium staining based microscopic imaging analysis (reference value: 8.6 %); type: organism-based; settings: in vivo, topical_or_ocular
# Oryctolagus cuniculus [30] = assay: Induction of reepithelialization in injured New Zealand white rabbit cornea assessed as wound healing administered topically for qid measured at day 6 post-injury by fluorescein sodium staining based microscopic imaging analysis (reference value: 24.1 +/- 8.5 %); type: organism-based; settings: in vivo, topical_or_ocular
smiles,measurement,setting,value
CC[C@H](C)[C@H](NC(=O)CN)C(=O)NCC(=O)N[C@@H](C)C(=O)N[C@H](C(=O)N[C@@H](CC(C)C)C(=O)NCCC[C@@H](CN)C(=O)N[C@H](C(=O)N[C@@H](CC(C)C)C(=O)N[C@H](C(=O)N[C@H](C(=O)NCC(=O)N[C@@H](CC(C)C)C(=O)N1CCC[C@H]1C(=O)N[C@@H](C)C(=O)N[C@@H](CC(C)C)C(=O)N[C@H](C(=O)N[C@@H](CO)C(=O)N[C@@H](Cc1c[nH]c2ccccc12)C(=O)N[C@H](C(=O)N[C@@H](CCCCN)C(=O)N[C@@H](CCCNC(=N)N)C(=O)NCCC[C@@H](CN)C(=O)N[C@@H](CCCNC(=N)N)C(=O)N[C@@H](CCC(N)=O)C(=O)N[C@@H](CCC(N)=O)C(N)=O)[C@@H](C)CC)[C@@H](C)CC)[C@@H](C)O)[C@@H](C)O)C(C)C)C(C)C,HC50 at 1 h,[1],175 µg/mL
same,Activity,Oryctolagus cuniculus [2],42.9%
same,MIC,Enterobacteriaceae,4 to 128 µg/mL
same,MIC50,Enterobacteriaceae,16 µg/mL
same,Activity,NHDF,Toxic
same,Activity,Oryctolagus cuniculus [3],75.4%
same,Activity,HaCaT,Toxic
same,log(activity),Enterococcus faecalis [4],>5
same,Activity,Oryctolagus cuniculus [5],50.1%
same,MIC,Candida albicans,16 to 32 µg/mL
same,MIC50,Candida albicans,32 µg/mL
same,Activity,Acinetobacter baumannii [6],Active
same,Activity,T-cell [7],Non-Toxic
same,MIC,Enterococcus,4 to 16 µg/mL
same,MIC50,Enterococcus,8 µg/mL
same,MIC,Staphylococcus aureus [8],16 to 64 µg/mL
same,MIC50,Staphylococcus aureus [8],32 µg/mL
same,log(activity),Enterococcus faecalis [9],>5
same,MIC,Pseudomonas aeruginosa,8 to 64 µg/mL
same,MIC50,Pseudomonas aeruginosa,32 µg/mL
same,Activity,Klebsiella pneumoniae,Active
same,Activity,T-cell [10],Non-Toxic
same,Activity,Escherichia coli [11],Active
same,Activity,Oryctolagus cuniculus [12],63.6%
same,Activity,T-cell [13],Non-Toxic
same,Activity,Enterococcus faecalis [14],Active
same,Activity,Enterococcus faecalis [15],Active
same,log(activity),Enterococcus faecalis [16],>5
same,Activity,Acinetobacter baumannii [17],Active
same,Activity,Acinetobacter baumannii [18],Active
same,remaining at 4 h,[19],87.9%
same,Activity,Oryctolagus cuniculus [20],90.9%
same,MIC50,Staphylococcus aureus [21],32 µg/mL
same,Activity,Oryctolagus cuniculus [22],5.2%
same,Activity,Escherichia coli [23],Active
same,Stability,[24],Stable
same,"viability at 24 h, 500 ug/ml",[25],90.7%
same,MIC,Acinetobacter baumannii [26],4 to 8 µg/mL
same,MIC50,Acinetobacter baumannii [26],6 µg/mL
same,Ratio,Enterococcus faecalis [27],16
same,Activity,T-cell [28],Non-Toxic
same,Activity,Oryctolagus cuniculus [29],12.6%
same,Activity,Oryctolagus cuniculus [30],30.2%
